*1 amine or outer side, *2 acyl side, *3 side chain or, on linkers, in order; H or OH if unused. Where a SMILES comes first, the peptide text is derived from it. [ ]: non-standard residue; d: D form. LeuΨ(S-CHOHCH2)Ala = CC(C)C[C@H](N[*:1])[C@@H](O)C[C@@H](C)C(=O)[*:2]
Target: T1, Beta-secretase 1 (Homo sapiens, UniProt P56817)
Experiment: Inhibition of BACE1 at 20 ug/ml by FRET assay
Settings: not given

T1 sequence (P56817 whole entry): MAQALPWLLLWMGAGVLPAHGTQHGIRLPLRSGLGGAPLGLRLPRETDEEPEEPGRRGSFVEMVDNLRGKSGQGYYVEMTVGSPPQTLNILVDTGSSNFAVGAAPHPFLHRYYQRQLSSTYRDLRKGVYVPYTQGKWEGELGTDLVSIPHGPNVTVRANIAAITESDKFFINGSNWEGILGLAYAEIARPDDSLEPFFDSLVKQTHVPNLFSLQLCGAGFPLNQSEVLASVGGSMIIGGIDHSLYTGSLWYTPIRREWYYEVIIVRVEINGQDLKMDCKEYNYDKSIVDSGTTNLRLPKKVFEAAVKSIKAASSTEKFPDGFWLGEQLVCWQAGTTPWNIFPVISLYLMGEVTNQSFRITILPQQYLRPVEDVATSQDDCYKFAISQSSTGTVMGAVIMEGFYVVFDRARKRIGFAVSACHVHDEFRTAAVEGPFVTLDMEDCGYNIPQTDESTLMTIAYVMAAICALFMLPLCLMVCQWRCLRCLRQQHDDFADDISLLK

| SMILES | inhibition [%] |
| --- | --- |
| O=C(Cc1cccc2ccccc12)Nc1cc(Br)ccc1OCCN1CCOCC1 | 39.4 |
| O=S(=O)(Nc1cc(Br)ccc1OCCN1CCOCC1)c1ccc(Br)cc1 | 14.3 |
| CCOC(=O)C1CCN(CCOc2ccc(Br)cc2NC(=O)Cc2cccc3ccccc23)CC1 | 34.8 |
| O=C(Cc1cccc2ccccc12)Nc1cc(Br)ccc1OCCNC1CCCCC1 | 64.5 |

The remaining lines, values ahead:

| inhibition [%] | SMILES |
| --- | --- |
| 15.1 | O=C(Cc1cccc2ccccc12)Nc1cc(Br)ccc1OCCNCCCO |
| 41.8 | CN(CCOc1ccc(Br)cc1NC(=O)Cc1cccc2ccccc12)Cc1ccccc1 |
| 13.8 | O=C(CCc1ccccc1)Nc1cc(Br)ccc1OCCN1CCOCC1 |
| 83.7 | NCCCCCCNCCOc1ccc(Br)cc1NC(=O)Cc1cccc2ccccc12 |
| 24.7 | CCOC(=O)CN(C)CCOc1ccc(Br)cc1NC(=O)Cc1cccc2ccccc12 |

Target: T1, Beta-secretase 1
Experiment: Inhibition of BACE1 by FRET assay
Settings: not given

| IC50 [µM] | SMILES |
| --- | --- |
| 18.3 | NCCCCCCNCCOc1ccc(Br)cc1NC(=O)Cc1cccc2ccccc12 |
| 47.1 | O=C(Cc1cccc2ccccc12)Nc1cc(Br)ccc1OCCNC1CCCCC1 |

Target: T1, Beta-secretase 1
Settings: 2 ug/ml
Description: Inhibition of BACE1 at 2 ug/ml by FRET assay

| inhibition [%] | SMILES |
| --- | --- |
| 102 | CC(C)C[C@H](NC(=O)[C@H](CC(N)=O)NC(=O)[C@@H](NC(=O)[C@@H](N)CCC(=O)O)C(C)C)[C@@H](O)C[C@@H](C)C(=O)N[C@@H](C)C(=O)N[C@@H](CCC(=O)O)C(=O)N[C@@H](Cc1ccccc1)C(=O)O (H-EVN[LeuΨ(S-CHOHCH2)Ala]AEF-OH) |

Reference: ChEMBL document CHEMBL1139256, “Identification of pharmacophore model, synthesis and biological evaluation of N-phenyl-1-arylamide and N-phenylbenzenesulfonamide derivatives as BACE 1 inhibitors” (Bioorg Med Chem, 2008)
